According to patent US10799478B2, “Treatment of androgen deprivation therapy associated symptoms” (priority 2014, dated 2020):

Key:
[1] = Four Week Oral Toxicity Study in Rats; format: in vivo, rat; conditions: CD [Crl:CD (SD)], rat
Experimental: (§1) Three treatment groups of 10 male and 10 female CD® [Crl:CD® (SD)] rats are administered the test article at respective dose levels of 15, 150, and 1500 mg/kg/day. […] The test article or vehicle is administered to all groups via oral gavage, once a day for 28 consecutive days, at a dose volume of 15 mL/kg. Additionally, three groups of 18 animals/sex/group serves as toxicokinetic (TK) animals and receives the test article in the same manner and dose volume as the main study groups at respective dose levels of 15, 150, and 1500 mg/kg/day. One additional group of three animals/sex serves as the toxicokinetic control and receives the vehicle in the same manner and dose volume as the treated groups.
(§2) Observations for morbidity, mortality, injury, and the availability of food and water are conducted twice daily for all animals. Observations for clinical signs are conducted weekly for main study animals only. Body weights were measured and recorded weekly for all animals and food consumption is measured and recorded weekly for main study animals. Ophthalmoscopic examinations are conducted pretest on all animals and prior to terminal necropsy for main study animals only. Blood samples for clinical pathology evaluations are collected from all main study animals at necropsy. Urine samples are collected on the last day of dosing. Blood samples for determination of the plasma concentrations of the test article are collected from TK animals at designated time points on Days 1 and 28. After the final blood collection, the TK animals are euthanized and the carcasses are discarded without further evaluation. Liver samples for hepatic enzyme induction analysis are collected at terminal necropsy from main study animals. At study termination, necropsy examinations are performed, organ weights are recorded, and prostate and seminal vesicle tissues are microscopically examined. Additional microscopic examination is performed on the left testis from the first five male rats/group at necropsy.

CD [Crl:CD (SD)] rats = experiment: Four Week Oral Toxicity Study in Rats; format: in vivo, rat; conditions: for decrease in albumin / decrease in total protein / increase in alkaline phosphatase: females
Experimental: as §1, §2

ORX Wistar male rats = experiment: In Vivo Study to Explore Direct Antagonist Effect of Example 1 in the Presence of TE; design: species or system rat; conditions: for Seminal Vesicle Wet Weights, Abs(Dif) − LSD / Prostate Weights, Abs(Dif) − LSD: vs TE alone; for Prostate Weight, % Sham / SV Weight, % Sham: 8 weeks
Experimental: Route of administration for all groups except TE is oral. TE is administered subcutaneously. At the end of 8 weeks of daily dosing, rats are euthanized, weighed & tissue harvested. Levator ani, prostates, and seminal vesicles are collected from each animal. Results are plotted as means±SE.

Sprague-Dawley rat = experiment: in vivo; conditions: for Male group mean AUC0-24 hr near termination / Prostate weight (mean % decrease): rats, 6 months
Experimental: (§3) Vehicle controls (15 rats/sex in main study and 5 rats/sex in recovery study) are given daily oral gavage dose of 5% Vitamin E TPGS, 1% hydroxyethylcellulose, 0.05% Dow Corning Antifoam 1510-US in purified water. Fifteen males and 15 females are assigned to each treatment main study group. Five males and 5 females are assigned to the recovery study for the vehicle control and 150 mg/kg/day groups. […] All administrations are given in a 15 mL/kg volume.

in vivo = conditions: both, Sprague-Dawley, rat, in vivo, po
Experimental: as §3

healthy human volunteers = experiment: Phase Ia Study in Healthy Volunteers; format: in vivo; conditions: for Change from Baseline for Lean Muscle, Comparison to Placebo Difference / Change from Baseline for Lean Muscle, LS Mean: Day 28
[2] = ORX + TE 1 mg/kg/d + Example 1 3 mg/kg/d po
[3] = ORX + TE 1 mg/kg/d + Example 1 3 mg/kg/d
[4] = ORX + TE 1 mg/kg/d + Example 1 10 mg/kg/d po
[5] = ORX + TE 1 mg/kg/d + Example 1 10 mg/kg/d
[6] = ORX + TE 1 mg/kg/d + Example 1 30 mg/kg/d

CC(C)OC(=O)N[C@H]1Cc2c(n(Cc3ccccn3)c3ccc(C#N)cc23)C1 (single isomer, unassigned) [Example 1]
NOAEL at 28 days ([1]; both sexes, in vivo, 4 weeks oral gavage, highest dose administered): 1500 mg/kg/day
AUC(0-t) ([1]; female, plasma, oral, females, 1500 mg/kg/day, read-out: Mean steady-state systemic exposure (AUC0-24 hr)): 217 µg·h/mL
systemic exposure (AUC0-24 hr) increase with dose (CD [Crl:CD (SD)] rats; 15, 150, 1500 mg/kg/day oral gavage): less-than-dose-proportional
unscheduled deaths (CD [Crl:CD (SD)] rats; 15-1500 mg/kg/day, 28 days): no unscheduled deaths
decrease in albumin (CD [Crl:CD (SD)] rats; 150 mg/kg/day): 12%
decrease in total protein (CD [Crl:CD (SD)] rats; 150 mg/kg/day): 9%
increase in alkaline phosphatase (CD [Crl:CD (SD)] rats; 150 mg/kg/day): 1.33 fold
decrease in albumin (CD [Crl:CD (SD)] rats; 1500 mg/kg/day): 12%
decrease in total protein (CD [Crl:CD (SD)] rats; 1500 mg/kg/day): 10%
increase in alkaline phosphatase (CD [Crl:CD (SD)] rats; 1500 mg/kg/day): 1.45 fold
hepatic microsomal enzyme induction (CD [Crl:CD (SD)] rats; following 28 days of dosing): no evidence
Seminal Vesicle Wet Weights, Abs(Dif) − LSD (ORX Wistar male rats; ORX + Example 1 10 mg/kg/d without TE): 1.411
Prostate Weight, % Sham (ORX Wistar male rats; [2]): 42.7 % Sham
SV Weight, % Sham (ORX Wistar male rats; [2]): 53.5 % Sham
Prostate Weights, Abs(Dif) − LSD (ORX Wistar male rats; [3]): −0.11
Seminal Vesicle Wet Weights, Abs(Dif) − LSD (ORX Wistar male rats; [3]): −0.34
Prostate Weight, % Sham (ORX Wistar male rats; [4]): 30.3 % Sham
SV Weight, % Sham (ORX Wistar male rats; [4]): 42.0 % Sham
Prostate Weights, Abs(Dif) − LSD (ORX Wistar male rats; [5]): 0.036
Seminal Vesicle Wet Weights, Abs(Dif) − LSD (ORX Wistar male rats; [5]): 0.078
Prostate Weight, % Sham (ORX Wistar male rats; ORX + TE 1 mg/kg/d + Example 1 30 mg/kg/d po): 31.2 % Sham
Prostate Weights, Abs(Dif) − LSD (ORX Wistar male rats; [6]): 0.025
Seminal Vesicle Wet Weights, Abs(Dif) − LSD (ORX Wistar male rats; [6]): 0.536
prostate wet weight in mg normalized to body weight (ORX Wistar male rats; co-treatment with 1 mg/Kg TE): dose-dependent decrease
seminal vesicle wet weight in mg normalized to body weight, induced by TE alone (ORX Wistar male rats; combination with TE 1 mg/Kg-day and various doses of Example 1): trend in decreasing
morphologic findings in the testes (Sprague-Dawley rat; all dose levels (15, 150, 1500 mg/kg/day)): considered to be adverse
accumulation after multiple doses (Sprague-Dawley rat; any dose group up to Day 182): not observed
higher body weight than concurrent controls (Sprague-Dawley rat; females, end of treatment period): 22%
body weight change compared to control (Sprague-Dawley rat; males, end of treatment period): −12%
Male group mean AUC0-24 hr near termination (Sprague-Dawley rat; 15 mg/kg/day): 15902 ng·h/mL
Male group mean AUC0-24 hr near termination (Sprague-Dawley rat; 150 mg/kg/day): 34132 ng·h/mL
Prostate weight (mean % decrease) (Sprague-Dawley rat; 150 mg/kg/day): ↓ 30%
Male group mean AUC0-24 hr near termination (Sprague-Dawley rat; 1500 mg/kg/day): 82690 ng·h/mL
Prostate weight (mean % decrease) (Sprague-Dawley rat; 1500 mg/kg/day): ↓ 34%
NOAEL (in vivo): < 15 mg/kg/day
changes from baseline in prostate-specific antigen levels compared with placebo (healthy human volunteers; any time point or any dose): no significant changes
Change from Baseline for Lean Muscle, Comparison to Placebo Difference (healthy human volunteers; females, 5 mg): 2298.22 g
Change from Baseline for Lean Muscle, LS Mean (healthy human volunteers; females, 5 mg): 1555.95 g
Change from Baseline for Lean Muscle, Comparison to Placebo Difference (healthy human volunteers; females, 15 mg): 3661.85 g
Change from Baseline for Lean Muscle, LS Mean (healthy human volunteers; females, 15 mg): 2919.58 g
Change from Baseline for Lean Muscle, Comparison to Placebo Difference (healthy human volunteers; females, 25 mg): 2224.51 g
Change from Baseline for Lean Muscle, LS Mean (healthy human volunteers; females, 25 mg): 1482.24 g
Change from Baseline for Lean Muscle, Comparison to Placebo Difference (healthy human volunteers; females, 75 mg): 2325.92 g
Change from Baseline for Lean Muscle, LS Mean (healthy human volunteers; females, 75 mg): 1583.65 g
Change from Baseline for Lean Muscle, Comparison to Placebo Difference (healthy human volunteers; males, 1 mg): 1548.97 g
Change from Baseline for Lean Muscle, LS Mean (healthy human volunteers; males, 1 mg): 675.52 g
Change from Baseline for Prostate Specific Antigen, Comparison to Placebo Difference (healthy human volunteers; males, 1 mg, day 14): -0.10 µg/L
Change from Baseline for Prostate Specific Antigen, LS Mean (healthy human volunteers; males, 1 mg, day 14): -0.06 µg/L
Change from Baseline for Prostate Specific Antigen, Comparison to Placebo Difference (healthy human volunteers; males, 1 mg, day 28): -0.09 µg/L
Change from Baseline for Prostate Specific Antigen, LS Mean (healthy human volunteers; males, 1 mg, day 28): -0.05 µg/L
Change from Baseline for Prostate Specific Antigen, Comparison to Placebo Difference (healthy human volunteers; males, 1 mg, day 35): -0.01 µg/L
Change from Baseline for Prostate Specific Antigen, LS Mean (healthy human volunteers; males, 1 mg, day 35): 0.02 µg/L
Change from Baseline for Lean Muscle, Comparison to Placebo Difference (healthy human volunteers; males, 5 mg): 1461.11 g
Change from Baseline for Lean Muscle, LS Mean (healthy human volunteers; males, 5 mg): 587.66 g
Change from Baseline for Prostate Specific Antigen, Comparison to Placebo Difference (healthy human volunteers; males, 5 mg, day 14): 0.16 µg/L
Change from Baseline for Prostate Specific Antigen, LS Mean (healthy human volunteers; males, 5 mg, day 14): 0.20 µg/L
Change from Baseline for Prostate Specific Antigen, Comparison to Placebo Difference (healthy human volunteers; males, 5 mg, day 28): -0.05 µg/L
Change from Baseline for Prostate Specific Antigen, LS Mean (healthy human volunteers; males, 5 mg, day 28): -0.00 µg/L
Change from Baseline for Prostate Specific Antigen, Comparison to Placebo Difference (healthy human volunteers; males, 5 mg, day 35): 0.17 µg/L
Change from Baseline for Prostate Specific Antigen, LS Mean (healthy human volunteers; males, 5 mg, day 35): 0.20 µg/L
Change from Baseline for Lean Muscle, Comparison to Placebo Difference (healthy human volunteers; males, 15 mg): 3202.54 g
Change from Baseline for Lean Muscle, LS Mean (healthy human volunteers; males, 15 mg): 2329.08 g
Change from Baseline for Prostate Specific Antigen, Comparison to Placebo Difference (healthy human volunteers; males, 15 mg, day 14): -0.16 µg/L
Change from Baseline for Prostate Specific Antigen, LS Mean (healthy human volunteers; males, 15 mg, day 14): -0.11 µg/L
Change from Baseline for Prostate Specific Antigen, Comparison to Placebo Difference (healthy human volunteers; males, 15 mg, day 28): -0.31 µg/L
Change from Baseline for Prostate Specific Antigen, LS Mean (healthy human volunteers; males, 15 mg, day 28): -0.27 µg/L
Change from Baseline for Prostate Specific Antigen, Comparison to Placebo Difference (healthy human volunteers; males, 15 mg, day 35): 0.22 µg/L
Change from Baseline for Prostate Specific Antigen, LS Mean (healthy human volunteers; males, 15 mg, day 35): 0.25 µg/L
Change from Baseline for Lean Muscle, Comparison to Placebo Difference (healthy human volunteers; males, 25 mg): 1829.63 g
Change from Baseline for Lean Muscle, LS Mean (healthy human volunteers; males, 25 mg): 956.18 g
Change from Baseline for Prostate Specific Antigen, Comparison to Placebo Difference (healthy human volunteers; males, 25 mg, day 14): -0.19 µg/L
Change from Baseline for Prostate Specific Antigen, LS Mean (healthy human volunteers; males, 25 mg, day 14): -0.15 µg/L
Change from Baseline for Prostate Specific Antigen, Comparison to Placebo Difference (healthy human volunteers; males, 25 mg, day 28): -0.27 µg/L
Change from Baseline for Prostate Specific Antigen, LS Mean (healthy human volunteers; males, 25 mg, day 28): -0.22 µg/L
Change from Baseline for Prostate Specific Antigen, Comparison to Placebo Difference (healthy human volunteers; males, 25 mg, day 35): -0.17 µg/L
Change from Baseline for Prostate Specific Antigen, LS Mean (healthy human volunteers; males, 25 mg, day 35): -0.14 µg/L
Change from Baseline for Lean Muscle, Comparison to Placebo Difference (healthy human volunteers; males, 75 mg): -683.76 g
Change from Baseline for Lean Muscle, LS Mean (healthy human volunteers; males, 75 mg): -1557.21 g
Change from Baseline for Prostate Specific Antigen, Comparison to Placebo Difference (healthy human volunteers; males, 75 mg, day 14): -0.17 µg/L
Change from Baseline for Prostate Specific Antigen, LS Mean (healthy human volunteers; males, 75 mg, day 14): -0.13 µg/L
Change from Baseline for Prostate Specific Antigen, Comparison to Placebo Difference (healthy human volunteers; males, 75 mg, day 28): 0.03 µg/L
Change from Baseline for Prostate Specific Antigen, LS Mean (healthy human volunteers; males, 75 mg, day 28): 0.07 µg/L
Change from Baseline for Prostate Specific Antigen, Comparison to Placebo Difference (healthy human volunteers; males, 75 mg, day 35): 0.00 µg/L
Change from Baseline for Prostate Specific Antigen, LS Mean (healthy human volunteers; males, 75 mg, day 35): 0.03 µg/L
